Laboratory results: patent US9650395B2, “Antibacterial compounds and methods for use” (PTC Therapeutics, Inc., priority 2011, dated 2017)
In brackets after ≈: the same amount, converted by molar mass. Counter-ions that a name gives are not always drawn. Like-named read-outs stand apart in the source and are kept apart here.

Legend:
[1] = test system: Gram-positive Staphylococcus aureus (S. aureus) 29213; test: Antibacterial activity, microbroth dilution MIC, S. aureus 29213; type: cell-based; details: Staphylococcus aureus; S. aureus 29213, microbroth dilution; read-out: MIC, 29213
[2] = test system: super sensitive Gram-negative Escherichia coli (E. coli) BAS849; test: Antibacterial activity, microbroth dilution MIC, E. coli BAS849; type: cell-based; details: Escherichia coli, read-out: MIC, BAS849
[3] = test system: control Gram-negative E. coli 25922 strain; test: Antibacterial activity, microbroth dilution MIC, E. coli 25922; type: cell-based, Escherichia coli; details: Escherichia coli; E. coli 25922, microbroth dilution; read-out: MIC, 25922
[4] = E. coli BAS849, microbroth dilution

SMILES | MIC [1] [µg/mL] | MIC [2, 4] [µg/mL] | MIC [3] [µg/mL] | MIC [2] [µg/mL]
CCc1cc(C(=O)O)c(=O)[nH]c1-c1ccc(N2CC3(CCCCC3)CC2=O)cc1 [Cpd 118, 5-ethyl-2-oxo-6-[4-(3-oxo-2-azaspiro[4.5]dec-2-yl)phenyl]-1,2-dihydropyridine-3-carboxylic acid] | 12.5 to 150 (≈ 31.7 to 380 µM) | 3.5 to 12.5 (≈ 8.87 to 31.7 µM) | 12.5 to 150 (≈ 31.7 to 380 µM) | 
CCc1c(-c2ccc(C)cc2)[nH]c(=O)c(C(=O)O)c1O [Cpd 28, 5-ethyl-4-hydroxy-6-(4-methylphenyl)-2-oxo-1,2-dihydropyridine-3-carboxylic acid] | 3.5 to 12.5 (≈ 12.8 to 45.7 µM) | < 1 | 12.5 to 150 (≈ 45.7 to 549 µM) | 
CCc1cc(C(=O)O)c(=O)[nH]c1-c1ccccc1N1CCCC1 [Cpd 46, 5-ethyl-2-oxo-6-[2-(pyrrolidin-1-yl)phenyl]-1,2-dihydropyridine-3-carboxylic acid] | 12.5 to 150 (≈ 40 to 480 µM) | 12.5 to 150 (≈ 40 to 480 µM) | 12.5 to 150 (≈ 40 to 480 µM) | 
CCc1c(-c2ccccc2N2CCCCC2)[nH]c(=O)c(C(=O)O)c1O [Cpd 29, 5-ethyl-4-hydroxy-2-oxo-6-[2-(piperidin-1-yl)phenyl]-1,2-dihydropyridine-3-carboxylic acid] | 1 to 3.5 (≈ 2.92 to 10.2 µM) | 1 to 3.5 (≈ 2.92 to 10.2 µM) | 12.5 to 150 (≈ 36.5 to 438 µM) | 
CCc1c(-c2ccc(N(C)C)cc2OC)[nH]c(=O)c(C(=O)O)c1O [Cpd 61, 6-[4-(dimethylamino)-2-methoxyphenyl]-5-ethyl-4-hydroxy-2-oxo-1,2-dihydropyridine-3-carboxylic acid] | 3.5 to 12.5 (≈ 10.5 to 37.6 µM) | 3.5 to 12.5 (≈ 10.5 to 37.6 µM) | 12.5 to 150 (≈ 37.6 to 451 µM) | 
CCc1cc(C(=O)OC)c(=O)[nH]c1-c1ccc(N2CCC(OCc3ccccc3)C2)cc1 (stereo not drawn) [Cpd 127, methyl 6-{4-[3-(benzyloxy)pyrrolidin-1-yl]phenyl}-5-ethyl-2-oxo-1,2-dihydropyridine-3-carboxylate] | 12.5 to 150 (≈ 28.9 to 347 µM) | 12.5 to 150 (≈ 28.9 to 347 µM) | 12.5 to 150 (≈ 28.9 to 347 µM) | 
CCc1c(-c2ccc(N3CCCC3)c(C)c2)[nH]c(=O)c(C(=O)O)c1O [Cpd 71, 5-ethyl-4-hydroxy-6-[3-methyl-4-(pyrrolidin-1-yl)phenyl]-2-oxo-1,2-dihydropyridine-3-carboxylic acid] | 3.5 to 12.5 (≈ 10.2 to 36.5 µM) | 1 to 3.5 (≈ 2.92 to 10.2 µM) | 12.5 to 150 (≈ 36.5 to 438 µM) | 
CCc1c(-c2ccc(N3CCCC3)s2)[nH]c(=O)c(C(=O)O)c1O [Cpd 307, 5-ethyl-4-hydroxy-2-oxo-6-[5-(pyrrolidin-1-yl)thiophen-2-yl]-1,2-dihydropyridine-3-carboxylic acid] | 3.5 to 12.5 (≈ 10.5 to 37.4 µM) | < 1 | 12.5 to 150 (≈ 37.4 to 449 µM) | 
CCc1c(-c2ccc(N3CCCCC3)cc2C)[nH]c(=O)c(C(=O)O)c1O [Cpd 51, 5-ethyl-4-hydroxy-6-[2-methyl-4-(piperidin-1-yl)phenyl]-2-oxo-1,2-dihydropyridine-3-carboxylic acid] | 3.5 to 12.5 (≈ 9.82 to 35.1 µM) | 3.5 to 12.5 (≈ 9.82 to 35.1 µM) | 12.5 to 150 (≈ 35.1 to 421 µM) | 
CCc1c(-c2ccccc2N2CCCC2)[nH]c(=O)c(C(=O)O)c1O [Cpd 47, 5-ethyl-4-hydroxy-2-oxo-6-[2-(pyrrolidin-1-yl)phenyl]-1,2-dihydropyridine-3-carboxylic acid] | 3.5 to 12.5 (≈ 10.7 to 38.1 µM) | 1 to 3.5 (≈ 3.05 to 10.7 µM) | 12.5 to 150 (≈ 38.1 to 457 µM) | 
CCc1c(-c2ccc(N3CCCC3)cc2C)[nH]c(=O)c(C(=O)O)c1O [Cpd 39, 5-ethyl-4-hydroxy-6-[2-methyl-4-(pyrrolidin-1-yl)phenyl]-2-oxo-1,2-dihydropyridine-3-carboxylic acid] | 1 to 3.5 (≈ 2.92 to 10.2 µM) | 3.5 to 12.5 (≈ 10.2 to 36.5 µM) | 12.5 to 150 (≈ 36.5 to 438 µM) | 
CCc1cc(C(=O)O)c(=O)[nH]c1-c1ccc(OC(C)(C)C)cc1 [Cpd 311, 6-(4-tert-butoxyphenyl)-5-ethyl-2-oxo-1,2-dihydropyridine-3-carboxylic acid] | 12.5 to 150 (≈ 39.6 to 476 µM) | 3.5 to 12.5 (≈ 11.1 to 39.6 µM) | 12.5 to 150 (≈ 39.6 to 476 µM) | 
CCc1c(-c2ccc(Br)cc2)[nH]c(=O)c(C(=O)O)c1O [Cpd 79, 6-(4-bromophenyl)-5-ethyl-4-hydroxy-2-oxo-1,2-dihydropyridine-3-carboxylic acid] | 3.5 to 12.5 (≈ 10.4 to 37 µM) | < 1 | 12.5 to 150 (≈ 37 to 444 µM) | 
CCc1cc(C(=O)O)c(=O)[nH]c1-c1ccc(F)cc1 [Cpd 26, 5-ethyl-6-(4-fluorophenyl)-2-oxo-1,2-dihydropyridine-3-carboxylic acid] | 12.5 to 150 (≈ 47.8 to 574 µM) | 12.5 to 150 (≈ 47.8 to 574 µM) | 12.5 to 150 (≈ 47.8 to 574 µM) | 
CCc1c(-c2ccc(OC)cc2N(C)C)[nH]c(=O)c(C(=O)O)c1O [Cpd 60, 6-[2-(dimethylamino)-4-methoxyphenyl]-5-ethyl-4-hydroxy-2-oxo-1,2-dihydropyridine-3-carboxylic acid] | 3.5 to 12.5 (≈ 10.5 to 37.6 µM) | 3.5 to 12.5 (≈ 10.5 to 37.6 µM) | 12.5 to 150 (≈ 37.6 to 451 µM) | 
CCc1cc(C(=O)O)c(=O)[nH]c1-c1ccc(-c2nnn[nH]2)cc1 [Cpd 23, 5-ethyl-2-oxo-6-[4-(1H-tetrazol-5-yl)phenyl]-1,2-dihydropyridine-3-carboxylic acid] | 12.5 to 150 (≈ 40.2 to 482 µM) | 12.5 to 150 (≈ 40.2 to 482 µM) | 12.5 to 150 (≈ 40.2 to 482 µM) | 
CCc1c(-c2ccc(N3CCCCC3)c(OC)c2)[nH]c(=O)c(C(=O)O)c1O [Cpd 69, 5-ethyl-4-hydroxy-6-[3-methoxy-4-(piperidin-1-yl)phenyl]-2-oxo-1,2-dihydropyridine-3-carboxylic acid] | 3.5 to 12.5 (≈ 9.4 to 33.6 µM) | 3.5 to 12.5 (≈ 9.4 to 33.6 µM) | 12.5 to 150 (≈ 33.6 to 403 µM) | 
CCc1cc(C(=O)O)c(=O)[nH]c1-c1ccnn1C [Cpd 344, 5-ethyl-6-(1-methyl-1H-pyrazol-5-yl)-2-oxo-1,2-dihydropyridine-3-carboxylic acid] | 12.5 to 150 (≈ 50.6 to 607 µM) | 12.5 to 150 (≈ 50.6 to 607 µM) | 12.5 to 150 (≈ 50.6 to 607 µM) | 
CCc1cc(C(=O)O)c(=O)[nH]c1-c1ccc(N2CCCC2)c(OC)c1 [Cpd 66, 5-ethyl-6-[3-methoxy-4-(pyrrolidin-1-yl)phenyl]-2-oxo-1,2-dihydropyridine-3-carboxylic acid] | 12.5 to 150 (≈ 36.5 to 438 µM) | 3.5 to 12.5 (≈ 10.2 to 36.5 µM) | 12.5 to 150 (≈ 36.5 to 438 µM) | 
CCc1cc(C(=O)O)c(=O)[nH]c1-c1ccc(N2CCC[C@H]2CN2CCCC2)cc1.O=C(O)C(F)(F)F [Cpd 143, 5-ethyl-2-oxo-6-{4-[(2S)-2-(pyrrolidin-1-ylmethyl)pyrrolidin-1-yl]phenyl}-1,2-dihydropyridine-3-carboxylic acid trifluoroacetate] | 12.5 to 150 |  | 12.5 to 150 | 3.5 to 12.5
CCc1cc(C(=O)O)c(=O)[nH]c1-c1ccc(Cl)cc1 [Cpd 76, 6-(4-chlorophenyl)-5-ethyl-2-oxo-1,2-dihydropyridine-3-carboxylic acid] | 12.5 to 150 (≈ 45 to 540 µM) | 12.5 to 150 (≈ 45 to 540 µM) | 12.5 to 150 (≈ 45 to 540 µM) | 
CCc1c(-c2ccc(OC)cc2C)[nH]c(=O)c(C(=O)O)c1O [Cpd 32, 5-ethyl-4-hydroxy-6-(4-methoxy-2-methylphenyl)-2-oxo-1,2-dihydropyridine-3-carboxylic acid] | 3.5 to 12.5 (≈ 11.5 to 41.2 µM) | 3.5 to 12.5 (≈ 11.5 to 41.2 µM) | 12.5 to 150 (≈ 41.2 to 495 µM) | 
CCc1cc(C(=O)O)c(=O)[nH]c1-c1ccc(N2C[C@@H]3[C@H](C2)[C@H]3N(Cc2ccccc2)Cc2ccccc2)cc1 [Cpd 176, 6-{4-[(1R,5S,6s)-6-(dibenzylamino)-3-azabicyclo[3.1.0]hex-3-yl]phenyl}-5-ethyl-2-oxo-1,2-dihydropyridine-3-carboxylic acid hydrochloride] | 12.5 to 150 | 12.5 to 150 | 12.5 to 150 | 
CCc1cc(C(=O)O)c(=O)[nH]c1-c1cnc(N(C)C)nc1 [Cpd 19, 6-[2-(dimethylamino)pyrimidin-5-yl]-5-ethyl-2-oxo-1,2-dihydropyridine-3-carboxylic acid] | 12.5 to 150 (≈ 43.4 to 520 µM) | 12.5 to 150 (≈ 43.4 to 520 µM) | 12.5 to 150 (≈ 43.4 to 520 µM) | 
CCc1c(-c2ccc(N3CCCC3)c(OC)c2)[nH]c(=O)c(C(=O)O)c1O [Cpd 67, 5-ethyl-4-hydroxy-6-[3-methoxy-4-(pyrrolidin-1-yl)phenyl]-2-oxo-1,2-dihydropyridine-3-carboxylic acid] | 1 to 3.5 (≈ 2.79 to 9.77 µM) | 3.5 to 12.5 (≈ 9.77 to 34.9 µM) | 12.5 to 150 (≈ 34.9 to 419 µM) | 
O=C(O)c1cc(C(=O)O)c(=O)[nH]c1-c1ccc(F)cc1 [Cpd 10, 6-(4-fluorophenyl)-2-oxo-1,2-dihydropyridine-3,5-dicarboxylic acid] | 12.5 to 150 (≈ 45.1 to 541 µM) | 12.5 to 150 (≈ 45.1 to 541 µM) | 12.5 to 150 (≈ 45.1 to 541 µM) | 
CCc1cc(C(=O)O)c(=O)[nH]c1-c1ccc(N2CCO[C@H]3CNC[C@H]32)cc1.O=C(O)C(F)(F)F [Cpd 186, 5-ethyl-6-{4-[(4aR,7aS)-hexahydropyrrolo[3,4-b][1,4]oxazin-4(4aH)-yl]phenyl}-2-oxo-1,2-dihydropyridine-3-carboxylic acid trifluoroacetate] | 12.5 to 150 |  | 12.5 to 150 | 12.5 to 150
CCc1c(-c2ccc(F)cc2)[nH]c(=O)c(C(=O)O)c1O [Cpd 74, 5-ethyl-6-(4-fluorophenyl)-4-hydroxy-2-oxo-1,2-dihydropyridine-3-carboxylic acid] | 12.5 to 150 (≈ 45.1 to 541 µM) | 3.5 to 12.5 (≈ 12.6 to 45.1 µM) | 12.5 to 150 (≈ 45.1 to 541 µM) | 
CCc1cc(C(=O)O)c(=O)[nH]c1-c1ccc(N2CCCC2)c(C)c1 [Cpd 70, 5-ethyl-6-[3-methyl-4-(pyrrolidin-1-yl)phenyl]-2-oxo-1,2-dihydropyridine-3-carboxylic acid] | 12.5 to 150 (≈ 38.3 to 460 µM) | < 1 | 12.5 to 150 (≈ 38.3 to 460 µM) | 
